Measurements reported in publication PMC7503509, “Polydopamine Linking Substrate for AMPs: Characterisation and Stability on Ti6Al4V” (Materials, 2020).
Like-named read-outs stand apart in the source and are kept apart here. No end group written: not given here.

What was measured:
[1] = tested on: Staphylococcus aureus (S. aureus, F77/NCTC8532); assay type: cell-based; settings: NCTC8532, 18 h
Description: (§1) The minimum inhibition concentration (MIC) is used to determine the lowest concentration of antimicrobial agent needed to inhibit the visible growth of a bacteria strain after overnight incubation. All the bacteria strains were kindly provided by Dr Mark Webber of the Quadram Institute Bioscience (Norwich, UK; Escherichia coli (E. coli, […]), Pseudomonas aeruginosa (P. aeruginosa, PAO1) and Staphylococcus aureus (S. aureus, […]/NCTC8532)). Lysogen broth (LB broth) and agar were purchased from Sigma-Aldrich, Merck Life Science UK Limited, Dorset, UK. Fresh LB agar culture plates were prepared by pouring ≈10 mL of an autoclaved warm mixture of LB broth (2.5%) and bacteriological agar (1.5%) dissolved in dH2O. The agar plate was streaked and incubated overnight at 36 °C. A single bacterial colony was chosen and grown in 5 mL broth overnight under agitation at 36 °C. Subsequently, 50 μL of LB broth was added to wells 2-12 of a 96-well culture plate. AMPs were diluted to a concentration of 256 μg/mL, added to well 1, and diluted two-fold down to column 11. Column 12 was left empty, with no AMPs added. Then, 50 μL of the diluted overnight bacteria culture was added to the wells and incubated at 36 °C for 18 h to allow bacteria to grow. After incubation, the well plates were examined for bacterial growth and the lowest concentration of AMPs where clear liquid was observed was assumed to be the minimum inhibitory concentration. Three measurements for each peptide and against each type of bacteria were performed and the average values were obtained.

[2] = tested on: E. coli (I364), P. aeruginosa (PAO1), S. aureus (F77); assay type: cell-based; settings: 18 h
Description: as §1

[3] = tested on: Escherichia coli (E. coli, I364); assay type: cell-based; settings: I364, 18 h
Description: as §1

[4] = tested on: Pseudomonas aeruginosa (P. aeruginosa, PAO1); assay type: cell-based; settings: PAO1, 18 h
Description: as §1

[5] = tested on: E. coli (I364), P. aeruginosa (PAO1), S. aureus (F77); settings: mean of the literature values for LL-37; cited from earlier work
From the text: Table 3 MIC values for the designed KR12 analogues compared to the LL-37 human cathelicidin. | column: MIC Values (μM) / Geometric Mean

[6] = tested on: Pseudomonas aeruginosa (P. aeruginosa, PAO1); settings: comparison value for LL-37; cited from earlier work
From the text: Table 3 MIC values for the designed KR12 analogues compared to the LL-37 human cathelicidin. | column: MIC Values (μM) / P. aeruginosa (PAO1)

[7] = tested on: Staphylococcus aureus (S. aureus, F77/NCTC8532); settings: comparison value for LL-37; cited from earlier work
From the text: Table 3 MIC values for the designed KR12 analogues compared to the LL-37 human cathelicidin. | column: MIC Values (μM) / S. aureus ([…])

[8] = tested on: Escherichia coli (E. coli, I364); settings: comparison value for LL-37; cited from earlier work
From the text: Table 3 MIC values for the designed KR12 analogues compared to the LL-37 human cathelicidin. | column: MIC Values (μM) / E. coli ([…])

Substance	MIC Values S. aureus (F77) [1] [µM]	MIC Values Geometric Mean [2] [µM]	MIC Values E. coli (I364) [3] [µM]	MIC Values P. aeruginosa (PAO1) [4] [µM]	MIC Values Geometric Mean [5] [µM]	MIC Values P. aeruginosa (PAO1) [6] [µM]	MIC Values S. aureus (F77) [7] [µM]	MIC Values E. coli (I364) [8] [µM]
KRIVQRIKDFLR [KR12, reference compound]	8	4.0	2	2				
KIRVRIKFR [KR12/32-5911]	2	3.33	4	4				
KRIVRIKFR [KR12-5911]	8	3.5	0.5	2				
KIRVQRIKDFLR [KR12/32]	32	13.33	4	4				
LL-37: human cathelicidin, native peptide of KR12					6.67	8	4	8
